This is an account of results in US9937133B2, “Treatment of fibrosis” (UCL BUSINESS PLC, priority 2014, dated 2018).

Type in all cases: cell-based, human
For test [1], the system named is F-PemI and F-PemU fibroblasts. The experiment in a line: Collagen production of OcMMP fibroblasts after ALDH inhibition (collagen type I competitive ELISA). The protocol:
To investigate whether there was differential matrix production in OcMMP, primary conjunctival fibroblasts explanted from conjunctival tissue samples from OcMMP patients with (F-PemI) and without (F-PemU) and control (F-C) patients were analysed for their matrix production and secretion (see FIG. 2A).
To ascertain whether this enhanced collagen production was mediated by ALDH1A3, the collagen production profiles of F-PemI, F-PemU and F-C fibroblasts were assessed after ALDH inhibition with DEAB or disulfiram (see FIGS. 2B to 2E, where “+” and “−” indicate the presence or absence of DEAB/disulfiram respectively).
A competitive ELISA (MD Bioproducts, Zurich, Germany) method was used to quantify the matrix production from a monolayer of F-C, F-PemU and F-PemI fibroblasts. The competitive assay is a colormetric based immunoassay utilises a biotinylated polyclonal antibody to Collagen Type I and purified human collagen type I as an antigen. […]
Each experiment was carried out per manufacturer's instructions and performed with at least 4 experimental repeats and 3 biological repeats. […] Another method that has been noted for quantifying the level of collagen production in OcMMP fibroblasts is Q-PCR quantification of collagen type 1 mRNA expression post TGF-β induction (Razzaque et al., 2003, Investigative ophthalmology and visual science, 44: 3417-3423, 1616-1621 and 1998-2003). […]

The subject of test [2] is F-C fibroblasts. Nature of the test: Matrix contraction by control fibroblasts after ALDH inhibition. An excerpt:
(§1) Next the ability of F-PemI and F-PemU fibroblasts to organise matrix through matrix contraction was investigated. […] This diminished contractile profile was similar in F-PemI and F-PemU fibroblasts.
(§2) To find out whether ALDH1A3 was also contributing to this phenotypic contractility we looked at the contractile profiles of F-PemI, F-PemU and F-C fibroblasts after DEAB or disulfiram ALDH inhibition.

Test [3] deals with F-PemI and F-PemU fibroblasts. Nature of the test: Proliferation of OcMMP fibroblasts after ALDH inhibition. The protocol:
The proliferative capacity of F-PemI, F-PemU and F-C fibroblasts was also assessed. […] The proliferative capacities of F-PemI and F-PemU were similar (see FIG. 4A).
To find out whether ALDH1A3 also mediates this anti-proliferative phenotype we monitored the proliferation of F-PemI, F-PemU and F-C fibroblasts after addition of DEAB or disulfiram.

For test [4], the system named is F-PemI and F-PemU fibroblasts. The experiment in a line: Alpha-smooth muscle actin alignment under a stressed matrix. An excerpt: Finally to have an indication of the differentiation capacity of F-PemI and F-PemU fibroblasts, their expression and alignment of alpha-smooth muscle actin under a stressed matrix was investigated. F-PemI and F-PemU lack the ability to align their alpha-smooth muscle actin into stress fibers when compared to F-C fibroblasts. The diminished alignment of alpha-smooth muscle actin was similar in both F-PemI and F-PemU fibroblasts.
To elucidate whether ALDH1A3 is contributing to this impaired alignment of alpha-smooth muscle actin in F-PemI and F-PemU fibroblasts, their alpha-smooth muscle actin alignment was imaged after being treated with DEAB and disulfiram.

The test system of test [5] is F-PemI and F-PemU fibroblasts. The experiment in a line: Matrix contraction by OcMMP fibroblasts after ALDH inhibition.
Source text: as §1, §2

Read-outs that look alike come from different tables or passages of the source.

With `CCN(CC)c1ccc(C=O)cc1` [DEAB, 4-(diethylamino)benzaldehyde], the “F-PemI and F-PemU fibroblast collagen production” value in test [1] (10^−7M) was “brought down to control cell levels”; in test [1] (increasing concentrations) it was “dose dependent and significant decrease”. In addition, in test [2], the “contractile profile of F-C fibroblasts” value is listed as “did not have any significant effects”. Besides, the “proliferation of F-PemI and F-PemU fibroblasts” value in test [3] is listed as “proliferating at a significantly enhanced rate”; in test [3] (lowest concentration of 10^−7M) it was “proliferated at similar level to F-C fibroblasts”. Moreover, the “alignment of alpha-smooth muscle actin in F-PemI and F-PemU fibroblasts” value in test [4] was “markedly improved the alignment”. In test [5] (increasing concentrations), the “contractility of F-PemI and F-PemU fibroblasts” value was “increased the contractility of F-PemI and F-PemU fibroblasts in a dose dependent manner”. Besides, the “contraction of F-PemI and F-PemU fibroblasts” value in test [5] (lowest concentration of 10^−7M) is listed as “control cell levels of contraction”.
